Measurements published in PMC10492782, “Exploiting the aggregation propensity of beta-lactamases to design inhibitors that induce enzyme misfolding” (Nature Communications, 2023).
Like-named read-outs stand apart in the source and are kept apart here.

B1: Pept-In TEM3.2 (peptide)
peptide: Ac-RLTAFLHNRRPRLTAFLRQRR-NH2
notes: designed tandem of the TEM version (LTAFLHN) and the SHV version (LTAFLRQ) of APR 3, each flanked by Arg, with a Pro linker; also called peptide TEM3.2; source: synthetic peptide (Genscript, >90% purity; also in-house solid-phase synthesis)

Experiments:
TEM-1 = TEM-1 (Escherichia coli, UniProt P62593); format: biochemical, E. coli; set-up: His-tag (N); TEV cleavage site (N); made in house; host or cells: E. coli BL21 (DE3); details: static light scattering during temperature ramp, inhibitor titration
Text: Then, we performed a thermal denaturation whilst simultaneously monitoring the intrinsic fluorescence as a measure of the folding status of the molecule (Fig. 1D and Supplementary Fig. 2D) and the static light scattering as a measure of aggregation (Fig. 1E and Supplementary Fig. 2E).
D Heat denaturation of TEM-1 monitored by intrinsic fluorescence plotted as the BaryCentric Mean (BCM) of the fluorescence emission spectrum in the presence (red) and absence (blue) of tazobactam. […] E Temperature-dependent evolution of the Right-Angle Light Scattering (RALS) intensity measured simultaneously with the data in D to monitor protein aggregation. […] F Same data as in E, but showing a dose-titration of the beta-lactamase inhibitor tazobactam.

E. coli TEM104 = test system: E. coli TEM104
Protocol: (§1) To quantify the synergy between these four peptides and penicillin G, we performed a so-called checkerboard assay, which allows us to compare the activity of two test compounds co-incubated (here peptide and a beta-lactam antibiotic), to their individual activities in isolation. […] We evaluated the synergy of the peptides with penicillin G in clinical E. coli isolates carrying the TEM (Fig. 3D) or SHV enzymes (Fig. 3E). […] The list of strains included some that harbored only TEM or SHV, but others contained additional Ambler Class A (CTX-M or OXA) or Class B (VIM and NDM) beta-lactamases.
(§2) For the analysis of synergy between the peptides and other antibiotics, a checkerboard assay was performed. Based on the MICs of the selected peptides, a checkerboard assay was designed to define their FICIs (Fractional Inhibitory Concentration Index) in combinations against different clinical isolates[53],[54]. Briefly, a total volume of 100 μL of Mueller–Hinton broth was distributed into each well of the 96-well plates. The first compound (peptide) of the combination was serially diluted vertically (128, 64, 32, 16, 8, 4, 2, 0 μg/mL) while the other drug (Beta-lactam or Kanamycin) was diluted horizontally in a 96-well plate (from 3200 to 3 μg/ mL). The total volume of each microtiter well was inoculated with 100 μL of MHB containing 1 × 10^6 CFU/mL bacteria. The plates were incubated at 37 °C for 24 h under aerobic conditions without shaking. Calculation of the FICI is used to analyze the results of the checkerboard assay by estimating the degree of synergistic effect. FICI is calculated as the sum of the individual fractional inhibitory concentrations (FICs) for each drug (where MIC A and MIC B denote the MIC of each drug alone, and MIC AA+B and MIC BA+B denote the concentrations of A and B in the drug combination). FICI = (MIC AA+B/MIC A) + (MIC BA+B/MIC B). With FICI ≤ 0.5, the combination of antibiotics is considered as a synergistic effect, 0.5 < FICI ≤ 1 indicates additivity, FICI > 1 indicates indifference.

E. coli NDM-5b = details: for synergy with penicillin (in words): checkerboard, strain containing NDM5b; for FICi values: E. coli NDM-5b
Text: (§3) As we wondered about the generality of our peptide design approach, we set out to design a peptide to inactivate a structurally unrelated beta-lactamase. To this end, we turned to the Ambler class B beta-lactamase NDM-1 that confers resistance to many beta-lactam antibiotics, including carbapenems, and strains carrying this enzyme were soon dubbed ‘superbugs’ that are only partially sensitive to colistin and tigecycline. This enzyme was first isolated from a patient in 2008[41]. By 2010 it could be detected in clinical isolates throughout the UK and India[42], and by 2015, in over 70 countries worldwide.
as §2

E. coli NDM-5a = details: for FICi values: E. coli NDM-5a; for synergy with penicillin (in words): checkerboard, strain containing NDM5a
Text: as §3, §2

E. coli strain UZ_TEM104 = details: broth microdilution, MHB, overnight 37 °C, peptide alone
Text: Pept-Ins consist of a tandem repeat of the APR, each instance flanked by charged amino acids for solubility and separated by a short peptide linker[20],[21],[24] (Fig. 3A). Previous work has shown that good bacterial uptake can be achieved using one positively charged arginine residue on the N-terminal side of each APR in the tandem and two arginine residues on the C-terminal side[20],[21]. […] As before, we employed a single Pro residue as a linker between the APRs and focused on an APR length of seven, extending shorter APRs to this length by incorporating flanking amino acids unless they were obvious aggregation breakers (Arg, Lys, Asp, Glu or Pro, see Table 1).
Determination of MIC values was performed using the broth microdilution method according to the EUCAST guideline, which was performed in 96-well polystyrene flat-bottom microtiter plates (BD Biosciences). Briefly, a single colony was inoculated into 5 mL Difco™ Mueller–Hinton Broth (BD Biosciences Ref 275730) and grown to the end-exponential growth phase in a shaking incubator at 37 °C. Cultures were subsequently diluted to a MacFarland (0.5 optical density) to reach 10^6 CFU/mL in fresh MHB medium. 50 µl of different concentrations of peptides ranging from 128 to 2 µg/mL were serially diluted to the sterile 96-well plate in MHB. 50 µL of the diluted bacteria in MHB were next pipetted into 96-well plates to reach the final volume of 100 µL. The bacteria grown with the maximum concentration of carrier and medium were considered positive and negative controls, respectively. The plates were statically incubated overnight at 37 °C to allow bacterial growth. OD was measured at 590 nm using a multipurpose ultraviolet–visible plate reader, and the absorbance of the bacterial growth was measured using an absorbance reader.

E. coli SHV11 = assay: Checkerboard assay (FICI); format: cell-based, Escherichia coli; details: strain containing SHV-11, FICI below 0.5 = synergy
Protocol: as §1
For the analysis of synergy between the peptides and other antibiotics, a checkerboard assay was performed. Based on the MICs of the selected peptides, a checkerboard assay was designed to define their FICIs (Fractional Inhibitory Concentration Index) in combinations against different clinical isolates[53],[54]. Briefly, a total volume of 100 μL of Mueller–Hinton broth was distributed into each well of the 96-well plates. […] FICI is calculated as the sum of the individual fractional inhibitory concentrations (FICs) for each drug (where MIC A and MIC B denote the MIC of each drug alone, and MIC AA+B and MIC BA+B denote the concentrations of A and B in the drug combination). […]

[1] = target: the molecule itself; assay: Thioflavin-T and pFTAA fluorescence kinetics + DLS + transmission electron microscopy; 50 μM TEM3.2 with polyphosphate (PolyP); electron microscopy after 24 h incubation at RT; the peptide is called soluble in buffer alone

TEM-1, sequence (P62593 24-286 limits assumed): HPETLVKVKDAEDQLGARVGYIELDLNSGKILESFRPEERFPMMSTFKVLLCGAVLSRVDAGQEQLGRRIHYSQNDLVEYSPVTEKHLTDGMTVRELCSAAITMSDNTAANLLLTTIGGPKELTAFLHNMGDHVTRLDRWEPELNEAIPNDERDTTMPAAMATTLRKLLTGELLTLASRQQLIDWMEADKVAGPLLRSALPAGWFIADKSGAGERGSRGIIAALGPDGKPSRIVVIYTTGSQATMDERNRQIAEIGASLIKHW

| Molecule | FICi values (E. coli TEM104; TEM104, Replicate1) | FICi values (E. coli TEM104; TEM104, Replicate2) | FICi values (E. coli TEM104; TEM104, Replicate3) | FICi values (E. coli TEM104; TEM104, Replicate4) | FICi values (E. coli TEM104; TEM104, Replicate5) | synergy with penicillin (in words) (E. coli NDM-5b) | FICi values (E. coli NDM-5a; Replicate1) | FICi values (E. coli NDM-5a; Replicate2) | FICi values (E. coli NDM-5a; Replicate3) | FICi values (E. coli NDM-5a; Replicate4) | FICi values (E. coli NDM-5a; Replicate5) | synergy with penicillin (in words) (E. coli NDM-5a) | other results |
| --- | --- | --- | --- | --- | --- | --- | --- | --- | --- | --- | --- | --- | --- |
| O=C(O)C[C@@H]1CC[C@H](NC(=O)Cc2cccs2)B(O)O1 [vaborbactam] | – | – | – | – | – | – | – | – | – | – | – | – | effect on aggregation of TEM-1, dose-response (in words) (TEM-1): reduce the aggregation of the enzyme in a dose-responsive manner |
| Ac-RLAAALMLRRPRAQILNWIRR-NH2 [NDM1-2] | 0.75 | 1 | 0.5 | 1 | 0.72 | show synergy | 0.375 | 0.36 | 0.25 | 0.159 | 0.25 | show synergy | – |
| Ac-RSVIIWSLGRRPRSVIIWSLGRR-NH2 [BGAL] | 1 | 1 | 1 | 1 | 1.5 | neither showed synergy on any of the strains used | 2 | 2 | 2 | 1.5 | 2 | neither showed synergy on any of the strains used | MIC peptide (E. coli strain UZ_TEM104): > 100 µg/mL; synergy with penicillin G (in words) (E. coli SHV11): no synergy with penicillin G; FICi values (E. coli NDM-5b; Replicate1): 2; FICi values (E. coli NDM-5b; Replicate2): 1; FICi values (E. coli NDM-5b; Replicate3): 2; FICi values (E. coli NDM-5b; Replicate4): 2; FICi values (E. coli NDM-5b; Replicate5): 1.5 |
| Ac-RTAQILNWRRPRTAQILNWRR-NH2 [NDM1-1] | 0.5 | 0.78 | 0.72 | – | 0.75 | show synergy | 0.37 | 0.38 | 0.21 | 0.195 | 0.25 | show synergy | – |
| B1 | – | – | – | – | – | – | – | – | – | – | – | – | binding result [1]: binds |
